Measurements from patent publication US20250186489A1, “REPROGRAMMING OF CELLS TO TYPE 1 CONVENTIONAL DENDRITIC CELLS OR ANTIGEN-PRESENTING CELLS” (Asgard Therapeutics AB, priority 2021, published 2025).

What was measured:
[1] = tested on: human embryonic fibroblasts (HEF); assay: cDC1 reprogramming efficiency of human embryonic fibroblasts, flow cytometry for CD45+HLA-DR+ cells at day 9; format: cell-based; conditions: for effect on cDC1 reprogramming efficiency when co-expressed with PU.1, IRF8 and BATF3: HEF co-transduced with TetO-PIB, M2rtTA and the individual factor
Protocol: HEFs, HDFs and Clec9a-tdTomato MEFs were seeded at a density of 40,000 cells per well and MSCs at a density of 50,000 cells per well on 0.1% gelatin coated 6-well plates. On the following day, cells were incubated overnight with either a ratio of 1:1 TetO-PIB and M2rtTA, SFFV-PIB-GFP or SFFV-GFP lentiviral particles in media supplemented with 8 μg/ml polybrene. Cells were transduced overnight twice in consecutive days and media replaced in between. After the second transduction, media was replaced by normal growth media (day 0). When using TetO-PIB, media was supplemented with Dox (1 μg/ml). Media was changed every 2-3 days for the duration of cultures. When stated, media was supplemented with LPS (100 ng/ml, Enzo), Poly I:C (25 μg/ml, InvivoGen) and R848 (3 μg/ml, InvivoGen) overnight. Cytokines were added at day 2 and kept for the duration of cultures; For reprogramming in xeno-free conditions, MSCs were cultured in X-Vivo 15 (Lonza) after transduction and media changed every 2-3 days for the duration of cultures.
For the analysis of surface marker expression, human and mouse cells were dissociated and incubated with antibodies diluted in PBS 5% FBS at 4° C. for 30 minutes in the presence of mouse or rat serum (1/100, GeneTex), for human and mouse cells respectively, to block unspecific binding. Cells were washed and resuspended in PBS 5% FBS and analyzed in BD FACSCanto II or BD LSRFortessa flow cytometers (BD Biosciences), unless stated otherwise. DAPI was used for dead cell exclusion. Flow cytometry data were analyzed using FlowJo software (FLOWJO, LLC, version 10.6.1). All flow cytometry analyses were performed in live single cell gates.
Coding regions of ID2, TXNIP, ZFP36, PLEK, SUB1, JUNB, CREM, KLF4, MXD1, LITAF, IRF7, FOS, NMI, TFEC, SP110, IRF5, STAT2, BATF, ZNF267, IRF1, RELB and BATF2 were individually cloned in the pFUW-TetO plasmid. […] Reprogramming efficiency was evaluated by flow cytometry in HEFs 9 days after transcription factor overexpression.
17 human hematopoietic cytokines including inflammatory mediators (Table 3) were individually added to the culture media 2 days after PIB induction in HEFs, and reprogramming efficiency was measured at day 9. Changes in reprogramming efficiency were analysed using both single cytokines and combinations of two or three cytokines.
The impact on reprogramming efficiency after a combination of cytokine treatment and SFFV-driven PIB induction was evaluated. The scPred system was used for integration with “natural” DCs. See previous Examples for experimental details.

[2] = tested on: Clec9a-tdTomato mouse embryonic fibroblasts (MEFs); assay: Replacement of PU.1 by homologs in cDC1 reprogramming of Clec9a-tdTomato MEFs; format: cell-based; conditions: for tdTomato^+ cells (Clec9a reporter activation): factor in combination with IRF8 and BATF3
Protocol: Coding regions of SPIB and SPIC were individually cloned in the pFUW-TetO plasmid. Lentiviral particles encoding each individual transcription factor or the reverse tetracycline transactivator M2rtTA under the control of constitutively active human ubiquitin C promoter (pFUW-UbC-M2rtTA) were used for co-transduction (Rosa et al. 2018). Reprogramming efficiency was evaluated by flow cytometry in Clec9a-tdTomato mouse embryonic fibroblasts (MEFs) 9 days after transcription factor overexpression.

[3] = HEF with SFFV-PIB in the presence of anti-inflammatory cytokine
[4] = HEF with Dox-inducible PIB, individual cytokine

For IL-6: cytokine, the “fold increase in reprogramming efficiency versus condition without cytokines” value ([1]; HEF with Dox-inducible PIB) was 2.5 fold.

For TNF-α, the “fold increase in reprogramming efficiency versus condition without cytokines” value ([1]; HEF with Dox-inducible PIB) was 3 fold.

For IL-1β: cytokine, the “fold increase in reprogramming efficiency versus condition without cytokines” value ([1]; HEF with Dox-inducible PIB) was 3 fold.

With “SPIC: ETS-domain transcription factor, PU.1 homolog, SEQ ID NO: 25” the “reporter activation by the factor alone” value [2] was “not able to activate the DC-specific reporter”, the “tdTomato^+ cells (Clec9a reporter activation)” value [2] was 1.46±0.73% and the “ability to replace PU.1 in cDC1 reprogramming” value ([2]; with IRF8 and BATF3) was “could replace PU.1”.

For “SPIB: ETS-domain transcription factor, PU.1 homolog, SEQ ID NO: 23”, the “reporter activation by the factor alone” value [2] was “not able to activate the DC-specific reporter”, the “tdTomato^+ cells (Clec9a reporter activation)” value [2] was “about 8.14±1.16%” and the “tdTomato^+ cells co-expressing CD45 and MHC-II” value ([2]; factor in combination with IRF8 and BATF3, gated in tdTomato^+) was 33.63±3.76%. The “ability to replace PU.1 in cDC1 reprogramming” value ([2]; with IRF8 and BATF3) was “could replace PU.1” and the “fold increase in tdTomato^+ cells co-expressing CD45 and MHC-II in comparison to PU.1” value ([2]; with IRF8 and BATF3) was 2 fold.

For TGF-β, the “fold reduction of reprogramming efficiency” value [1, 3] was 2 fold and the “impact on CD40 expression in hiDCs” value [1, 3] was “did not impact CD40 expression”.

GM-CSF: cytokine was tested, and the “impact on reprogramming efficiency” value [1, 4] was “did not impact reprogramming efficiency”.

B1: FLT3L: cytokine (protein, UniProt P49771 27-235, looked up)
Fms-related tyrosine kinase 3 …: TQDCSFQHSPISSDFAVKIRELSDYLLQDYPVTVASNLQDEELCGGLWRLVLAQRWMERLKTVAGSKMQGLLERVNTEIHFVTKCAFQPPPSCLRFVQTNISRLLQETSEQLVALKPWITRQNFSRCLELQCQPDSSTLPPPWSPRPLEATAPTAPQPPLLLLLLLPVGLLLLAAAWCLHWQRTRRRTPRPGEQVPPVPSPQDLLLVEH
B1 was tested, and the “impact on reprogramming efficiency” value [1, 4] was “did not impact reprogramming efficiency”.

B2: IL-4: cytokine (protein, UniProt P05112 25-153, looked up)
Interleukin-4: HKCDITLQEIIKTLNSLTEQKTLCTELTVTDIFAASKNTTEKETFCRAATVLRQFYSHHEKDTRCLGATAQQFHRHKQLIRFLKRLDRNLWGLAGLNSCPVKEANQSTLENFLERLKTIMREKYSKCSS
With B2 the “impact on reprogramming efficiency” value [1, 4] was “did not impact reprogramming efficiency”.

B3: IRF7: transcription factor of the interferon regulatory factor family, SEQ ID NO: 21 (protein, listed as Homo sapiens)
chain: MPVPERPAAGPDSPRPGTRRAAPRVLFGEWLLGEISSGCYEGLQWLDEARTCFRVPWKHFARKDLSEADARIFKAWAVARGRWPPSSRGGGPPPEAETAERAGWKTNFRCALRSTRRFVMLRDNSGDPADPHKVYALSRELCWREGPGTDQTEAEAPAAVPPPQGGPPGPFLAHTHAGLQAPGPLPAPAGDKGDLLLQAVQQSCLADHLLTASWGADPVPTKAPGEGQEGLPLTGACAGGPGLPAGELYGWAVETTPSPGPQPAALTTGEAAAPESPHQAEPYLSPSPSACTAVQEPSPGALDVTIMYKGRTVLQKVVGHPSCTFLYGPPDPAVRATDPQQVAFPSPAELPDQKQLRYTEELLRHVAPGLHLELRGPQLWARRMGKCKVYWEVGGPPGSASPSTPACLLPRNCDTPIFDFRVFFQELVEFRARQRRGSPRYTIYLGFGQDLSAGRPKEKSLVLVKLEPWLCRVHLEGTQREGVSSLDSSSLSLCLSSANSLYDDIECFLMELEQPA
modifications: Interferon regulatory factor 7 [Homo sapiens], peptide sequence
With B3 the “effect on cDC1 reprogramming efficiency when co-expressed with PU.1, IRF8 and BATF3” value [1] was “increased cDC1 reprogramming efficiency”.

B4: BATF: nuclear basic leucine zipper transcription factor, SEQ ID NO: 19 (protein, listed as Homo sapiens)
chain: MPHSSDSSDSSFSRSPPPGKQDSSDDVRRVQRREKNRIAAQKSRQRQTQKADTLHLESEDLEKQNAALRKEIKQLTEELKYFTSVLNSHEPLCSVLAASTPSPPEVVYSAHAFHQPHVSSPRFQP
modifications: basic leucine zipper transcriptional factor ATF-like [Homo sapiens], peptide sequence
For B4, the “effect on cDC1 reprogramming efficiency when co-expressed with PU.1, IRF8 and BATF3” value [1] was “increased cDC1 reprogramming efficiency”.

B5: Oncostatin M: cytokine (protein, UniProt P13725 26-221, looked up)
Oncostatin-M: AAIGSCSKEYRVLLGQLQKQTDLMQDTSRLLDPYIRIQGLDVPKLREHCRERPGAFPSEETLRGLGRRGFLQTLNATLGCVLHRLADLEQRLPKAQDLERSGLNIEDLEKLQMARPNILGLRNNIYCMAQLLDNSDTAEPTKAGRGASQPPTPTPASDAFQRKLEGCRFLHGYHRFMHSVGRVFSKWGESPNRSRR
For B5, the “fold increase in reprogramming efficiency versus condition without cytokines” value ([1]; HEF with Dox-inducible PIB) was 4 fold.

B6: IL-10: anti-inflammatory cytokine (protein, UniProt P22301 19-178, looked up)
Interleukin-10: SPGQGTQSENSCTHFPGNLPNMLRDLRDAFSRVKTFFQMKDQLDNLLLKESLLEDFKGYLGCQALSEMIQFYLEEVMPQAENQDPDIKAHVNSLGENLKTLRLRLRRCHRFLPCENKSKAVEQVKNAFNKLQEKGIYKAMSEFDIFINYIEAYMTMKIRN
With B6 the “impact on CD40 expression in hiDCs” value [1, 3] was “did not impact CD40 expression” and the “impact on reprogramming efficiency” value [1, 3] was “did not impact reprogramming efficiency”.
